Source: ChEMBL document CHEMBL4513161, “CO-ADD screening of MMV (CH) - Pandemic Response Box” (2021)
≈ marks a conversion by molar mass, not a printed value. Structures can show the parent of a compound that is named as a salt.

Assays:
Pseudomonas aeruginosa [1] = assay: microbe, parasite or virus in culture; conditions: ATCC 27853, 18 h, ASSAY_TEST Inhibition of Bacterial Growth, detection method Absorption (OD600), MEDIA CAMHB, plate type 384well, NBS, CORNING #3640
Description: Antibacterial activity against Pseudomonas aeruginosa ATCC 27853 (CO-ADD:GN_042); MIC in CAMBH media using NBS plates, by OD(600)

Candida albicans = assay: microbe, parasite or virus in culture; conditions: ATCC 90028, ASSAY_TEST Inhibition of Fungal Growth, detection method Absorption (OD530), plate type 384well, NBS, CORNING #3640
Description: Antifungal activity against Candida albicans ATCC 90028 (CO-ADD:FG_001); MIC in YNB media using NBS plates, by OD630

Staphylococcus aureus = assay: microbe, parasite or virus in culture; conditions: ATCC 43300, 18 h, ASSAY_TEST Inhibition of Bacterial Growth, detection method Absorption (OD600), MEDIA CAMHB, plate type 384well, NBS, CORNING #3640
Description: Antibacterial activity against Staphylococcus aureus MRSA ATCC 43300 (CO-ADD:GP_020); MIC in CAMBH media, using NBS plates, by OD(600)

Escherichia coli = assay: microbe, parasite or virus in culture; conditions: ATCC 25922, 18 h, ASSAY_TEST Inhibition of Bacterial Growth, detection method Absorption (OD600), MEDIA CAMHB, plate type 384well, NBS, CORNING #3640
Description: Antibacterial activity against Escherichia coli ATCC 25922 (CO-ADD:GN_001); MIC in CAMBH media using NBS plates, by OD(600)

Klebsiella pneumoniae = assay: microbe, parasite or virus in culture; conditions: ATCC 700603, 18 h, ASSAY_TEST Inhibition of Bacterial Growth, detection method Absorption (OD600), MEDIA CAMHB, plate type 384well, NBS, CORNING #3640
Description: Antibacterial activity against Klebsiella pneumoniae MDR ATCC 70063 (CO-ADD:GN_003); MIC in CAMBH media using NBS plates, by OD(600)

Pseudomonas aeruginosa [2] = assay: Antibacterial activity against Pseudomonas aeruginosa PAO397 [PAO1 d(mexAB-oprM) d(mexCD-oprJ) d(mexEF-oprN) d(mexJKL) d(mexXY) d(opmH)] (CO-ADD:GN_211); MIC in CAMBH media using NBS plates, by OD(600); assay type: functional; conditions: ASSAY_TEST Inhibition of Bacterial Growth, detection method Absorption (OD600), MEDIA CAMHB, plate type 384well, CORNING #3640, time 18 hr
HEK293 = assay: cells; assay type: functional, Homo sapiens, ATCC CRL1573; conditions: Homo sapiens, ATCC CRL1573, HEK293; ASSAY_TEST Inhibition of Cell Viability; detection method Resazurin; Fluorescence (ex560/em590); MEDIA DMEM with 10% FBS; plate type 384well; TC; CORNING #3712; time 18 hr; read-out: CC50
Acinetobacter baumannii = assay: microbe, parasite or virus in culture; conditions: ATCC 19606, 18 h, ASSAY_TEST Inhibition of Bacterial Growth, detection method Absorption (OD600), MEDIA CAMHB, plate type 384well, NBS, CORNING #3640
Description: Antibacterial activity against Acinetobacter baumannii ATCC 19606 (CO-ADD:GN_034); MIC in CAMBH media using NBS plates, by OD600

Description for Cryptococcus neoformans: Antifungal activity against Cryptococcus neoformans H99 ATCC 208821 (CO-ADD:FG_002); MIC in YNB media using NBS plates, by Resazurin OD(600-570)

Row | Compound | MIC (Pseudomonas aeruginosa [1]) | MIC (Candida albicans) | MIC (Staphylococcus aureus) | MIC (Escherichia coli) | MIC (Cryptococcus neoformans) | MIC (Klebsiella pneumoniae) | MIC (Pseudomonas aeruginosa [2]) | MIC (Acinetobacter baumannii) | CC50 (HEK293)
1 | C[C@@H]1O[C@@H]1P(=O)(O)O | > 20 µM | > 20 µM | > 20 µM | > 20 µM | > 20 µM | > 20 µM | > 20 µM | > 20 µM | > 20 µM
2 | Oc1c(C(Nc2nc3ccccc3s2)c2ccc(OC(F)F)cc2)ccc2cccnc12 (configuration not stated) | > 20 µM | > 20 µM | > 20 µM | > 20 µM | > 20 µM | > 20 µM | > 20 µM | > 20 µM | 9.22 µM
3 | NC(=O)c1ccccc1NC(=O)c1ccc(C(=O)Nc2ccccc2C(N)=O)cc1 | > 20 µM | > 20 µM | > 20 µM | > 20 µM | > 20 µM | > 20 µM | > 20 µM | > 20 µM | > 20 µM
4 | O=C(CCCC(F)(F)F)N1CCC(c2nc(-c3nccs3)no2)CC1 | > 20 µM | > 20 µM | > 20 µM | > 20 µM | > 20 µM | > 20 µM | > 20 µM | > 20 µM | > 20 µM
5 | Nc1nnnn1CCOc1c2[nH]c3ccc(Cl)cc3c2cc2c1[nH]c1ccc(Cl)cc12 | > 20 µM | > 20 µM | > 20 µM | > 20 µM | > 20 µM | > 20 µM | > 20 µM | > 20 µM | 19.9 µM
6 | CC(C)(C)NC(=O)[C@@H]1C[C@@H]2CCCC[C@@H]2CN1C[C@@H](O)[C@H](Cc1ccccc1)NC(=O)[C@H](CC(N)=O)NC(=O)c1ccc2ccccc2n1 | > 20 µM | > 20 µM | > 20 µM | > 20 µM | > 20 µM | > 20 µM | > 20 µM | > 20 µM | > 20 µM
7 | CC(C)C(=O)N[C@H]1[C@H]([C@H](O)[C@H](O)CO)OC(C(=O)O)=C[C@@H]1N=[N+]=[N-] | > 20 µM | > 20 µM | > 20 µM | > 20 µM | > 20 µM | > 20 µM | > 20 µM | > 20 µM | > 20 µM
8 | Fc1ccc2c(/C=C/c3nnn[nH]3)c[nH]c2c1 | > 20 µM | > 20 µM | > 20 µM | > 20 µM | > 20 µM | > 20 µM | > 20 µM | > 20 µM | > 20 µM
9 | COc1cc(C(C)(C)CCCC(C)C)cc(OC)c1OC | > 20 µM | > 20 µM | > 20 µM | > 20 µM | > 20 µM | > 20 µM | > 20 µM | > 20 µM | > 20 µM
10 | C[C@H](NC(=O)C(=O)Nc1ccccc1C(C)(C)C)C(=O)N[C@@H](CC(=O)O)C(=O)COc1c(F)c(F)cc(F)c1F | > 20 µM | > 20 µM | > 20 µM | > 20 µM | > 20 µM | > 20 µM | > 20 µM | > 20 µM | > 20 µM
11 | O=c1cc(Nc2ccc3ccccc3c2)[nH]c(=O)[nH]1 | > 20 µM | > 20 µM | > 20 µM | > 20 µM | > 20 µM | > 20 µM | > 20 µM | > 20 µM | > 20 µM
12 | N#Cc1cc([N+](=O)[O-])ccc1Oc1ccccc1Cl | > 20 µM | > 20 µM | > 20 µM | > 20 µM | > 20 µM | > 20 µM | > 20 µM | > 20 µM | > 20 µM
13 | O=C(Nc1nnc(-c2ccc(Cl)cc2)o1)c1ccc(F)cc1 | > 20 µM | > 20 µM | > 20 µM | > 20 µM | > 20 µM | > 20 µM | > 20 µM | > 20 µM | > 20 µM
14 | Cc1ncc([N+](=O)[O-])n1CC(C)O (configuration not stated) [SECNIDAZOLE] | > 20 µM | > 20 µM | > 20 µM | > 20 µM | > 20 µM | > 20 µM | > 20 µM | > 20 µM | > 20 µM
15 | O=[N+]([O-])c1ccc2c(CCc3c[nH]c4ccccc34)c[nH]c2c1 | > 20 µM | > 20 µM | > 20 µM | > 20 µM | > 20 µM | > 20 µM | > 20 µM | > 20 µM | > 20 µM
16 | CC(=O)Nc1cc(NS(=O)(=O)c2ccc(Cl)cc2)cc2c(Cl)[nH]nc12 | > 20 µM | > 20 µM | > 20 µM | > 20 µM | > 20 µM | > 20 µM | > 20 µM | > 20 µM | > 20 µM
17 | O=C(NCc1cccc2ccccc12)c1cccs1 | > 20 µM | > 20 µM | > 20 µM | > 20 µM | > 20 µM | > 20 µM | > 20 µM | > 20 µM | > 20 µM
18 | CC[C@@H]1C(=O)OC[C@@H]1Cc1cncn1C [PILOCARPINE HYDROCHLORIDE] | > 20 µM | > 20 µM | > 20 µM | > 20 µM | > 20 µM | > 20 µM | > 20 µM | > 20 µM | > 20 µM
19 | c1cnc(NCc2ccc(CNc3ncccn3)cc2)nc1 [MSX-122] | > 20 µM | > 20 µM | > 20 µM | > 20 µM | > 20 µM | > 20 µM | > 20 µM | > 20 µM | > 20 µM

The next lines start with results.

Row | MIC (Pseudomonas aeruginosa [1]) | MIC (Candida albicans) | MIC (Staphylococcus aureus) | MIC (Escherichia coli) | MIC (Cryptococcus neoformans) | MIC (Klebsiella pneumoniae) | MIC (Pseudomonas aeruginosa [2]) | MIC (Acinetobacter baumannii) | Compound | CC50 (HEK293)
20 | > 20 µM | > 20 µM | > 20 µM | > 20 µM | > 20 µM | > 20 µM | > 20 µM | > 20 µM | Nc1nc2c(ncn2COCCO)c(=O)[nH]1 [ACYCLOVIR] | > 20 µM
21 | > 20 µM | > 20 µM | > 20 µM | > 20 µM | > 20 µM | > 20 µM | > 20 µM | > 20 µM | [N-]=[N+]=N[C@H]1C[C@H](n2ccc(=O)[nH]c2=O)O[C@@H]1CO [NAVURIDINE] | > 20 µM
22 | > 20 µM | ≤ 0.156 µM | > 20 µM | > 20 µM | ≤ 0.156 µM | > 20 µM | > 20 µM | > 20 µM | COC1CC2CCC(C)C(O)(O2)C(=O)C(=O)N2CCCCC2C(=O)OC(C(C)CC2CCC(OCCO)C(OC)C2)CC(=O)C(C)/C=C(\C)C(O)C(OC)C(=O)C(C)CC(C)/C=C/C=C/C=C/1C (configuration not stated) | > 20 µM
23 | > 20 µM | > 20 µM | > 20 µM | > 20 µM | > 20 µM | > 20 µM | > 20 µM | > 20 µM | CCCCCCC1c2ccc(O)cc2Oc2cc(O)ccc21 | > 20 µM
24 | > 20 µM | > 20 µM | > 20 µM | > 20 µM | > 20 µM | > 20 µM | > 20 µM | > 20 µM | COc1ccc(CNC(=O)C2CCN([C@H](C)c3cccc4ccccc34)CC2)cc1 | > 20 µM
25 | > 20 µM | > 20 µM | > 20 µM | > 20 µM | > 20 µM | > 20 µM | > 20 µM | > 20 µM | CCOC(=O)Nc1cc(NC(C)CC(C)CN(CC)CC)c2nc(-c3ccccc3)c(-c3ccccc3)nc2n1 (configuration not stated) | > 20 µM
26 | > 20 µM | > 20 µM | > 20 µM | > 20 µM | > 20 µM | > 20 µM | > 20 µM | > 20 µM | O=S(=O)(Nc1ccc(-n2cccc2)cc1)c1ccc(Cl)c(Cl)c1 | > 20 µM
27 | 20 µM (≈ 5.81 µg/mL) | > 20 µM | 5 µM (≈ 1.45 µg/mL) | 2.5 µM (≈ 0.726 µg/mL) | > 20 µM | 10 µM (≈ 2.9 µg/mL) | 5 µM (≈ 1.45 µg/mL) | > 20 µM | COc1cc(Cc2cc(N)nc(N)n2)cc(OC)c1OC | > 20 µM
28 | 5 µM (≈ 1.85 µg/mL) | > 20 µM | 1.25 µM (≈ 0.462 µg/mL) | 10 µM (≈ 3.69 µg/mL) | > 20 µM | > 20 µM | 0.625 µM (≈ 0.231 µg/mL) | > 20 µM | COc1cc(NCc2ccc3nc(N)nc(N)c3c2C)cc(OC)c1OC [TRIMETREXATE] | > 20 µM
